From ChEMBL document CHEMBL1201862, “PubChem BioAssay data set” (2004)
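Test compounds were applied to cells in 96-well plates for 48 hours at 5 doses. GI50 marks 50% less growth.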 Activity calls are given as the source filed them. Cut-off read from the data, not from the text of the source: active = GI50 up to about 1.1 µM and inactive = higher.

Tests used:
Experiment in all cases: DTP human tumour cell line panel, 48 h
[1] = system: A498
[2] = system: ACHN
[3] = system: HCC 2998
[4] = system: HOP-92
[5] = system: K562
[6] = system: LOX IMVI
[7] = system: M14
[8] = system: M19-MEL
[9] = system: NCI-H522
[10] = system: NCI/ADR-RES
[11] = system: OVCAR-3
[12] = system: OVCAR-4
[13] = system: OVCAR-5
[14] = system: OVCAR-8
[15] = system: SK-MEL-5
[16] = system: SNB-75
[17] = system: TK-10
[18] = system: U-251
[19] = system: UACC-62
[20] = system: UO-31

Structure (SMILES) | GI50 [1] | GI50 [2] | GI50 [3] | GI50 [4] | GI50 [5] | GI50 [6] | GI50 [7] | GI50 [8] | GI50 [9] | GI50 [10] | GI50 [11] | GI50 [12] | GI50 [13] | GI50 [14] | GI50 [15] | GI50 [16] | GI50 [17] | GI50 [18] | GI50 [19] | GI50 [20]
C[N+](C)(C)CC1CCCC(C[N+](C)(C)C)C1=O (stereo unspecified) | 9.62 µM (inactive) | 0.845 µM (active) | 0.513 µM (active) | 0.441 µM (active) | 0.0724 µM (active) | 1.23 µM (inactive) | 0.879 µM (active) | 0.879 µM (active) | 0.447 µM (active) | 2.59 µM (inactive) | 0.703 µM (active) | 0.641 µM (active) | 3.52 µM (inactive) | 0.869 µM (active) | 5.16 µM (inactive) | 4.7 µM (inactive) | 1.21 µM (inactive) | 3.35 µM (inactive) | 4.66 µM (inactive) | 1.67 µM (inactive)
CC(=O)Oc1cc2c(cc1OC(C)=O)OCC(c1ccccc1)C2 (stereo unspecified) | 7.05 µM (inactive) |  | 29.1 µM (inactive) | 9.23 µM (inactive) | 12.1 µM (inactive) | 13.5 µM (inactive) |  | 14.9 µM (inactive) | 2.4 µM (inactive) | 31.3 µM (inactive) | 22.6 µM (inactive) | 24 µM (inactive) | 33.3 µM (inactive) | 16.9 µM (inactive) | 17.3 µM (inactive) | 8.18 µM (inactive) |  | 7.6 µM (inactive) | 19.2 µM (inactive) | 30.2 µM (inactive)
COC(=O)C1=C(c2ccc3c(c2)OCO3)O[C@H](c2ccc3c(c2)OCO3)[C@H]1COC(C)=O | 24.6 µM (inactive) | 29.4 µM (inactive) | 35.7 µM (inactive) | 30.5 µM (inactive) | 35.4 µM (inactive) | 48.4 µM (inactive) | 32.6 µM (inactive) | 33.3 µM (inactive) |  |  | 55.6 µM (inactive) | 36.6 µM (inactive) | 39.6 µM (inactive) | 45.8 µM (inactive) | 24.5 µM (inactive) | 49.5 µM (inactive) | 46.7 µM (inactive) | 53 µM (inactive) | 38.6 µM (inactive) | 38.7 µM (inactive)
O=c1[c-](-c2ccccc2)[se]c(-c2ccccc2)[n+]1-c1ccccc1 | 10 µM (inactive) |  | 6.35 µM (inactive) | 18.6 µM (inactive) | 16.8 µM (inactive) | 13.3 µM (inactive) | 4.99 µM (inactive) | 7.59 µM (inactive) | 2.91 µM (inactive) |  | 10 µM (inactive) | 2.35 µM (inactive) |  | 3.8 µM (inactive) | 13 µM (inactive) | 8.15 µM (inactive) | 8.32 µM (inactive) |  | 13 µM (inactive) | 3.08 µM (inactive)
COC(=O)Cc1cc(OC)c(OC)cc1Br | > 100 µM (inactive) | > 100 µM (inactive) | > 100 µM (inactive) | > 100 µM (inactive) | > 100 µM (inactive) |  | > 100 µM (inactive) | > 100 µM (inactive) | > 100 µM (inactive) |  | > 100 µM (inactive) | > 100 µM (inactive) | > 100 µM (inactive) | > 100 µM (inactive) |  | 66.4 µM (inactive) | > 100 µM (inactive) | > 100 µM (inactive) | > 100 µM (inactive) | > 100 µM (inactive)
COC1/C=C\C=C(/C)C(=O)NC2=CC(=O)C(NCCCl)=C(CC(C)CC(OC)C(O)C(C)/C=C(/C)C1OC(N)=O)C2=O (stereo unspecified) | 0.873 µM (active) | 0.281 µM (active) | 0.101 µM (active) | 0.384 µM (active) | 0.0236 µM (active) | 0.0857 µM (active) | 0.0724 µM (active) | 0.0366 µM (active) | 0.0219 µM (active) | 10.6 µM (inactive) | 0.0853 µM (active) | 2.54 µM (inactive) | 0.594 µM (active) | 0.115 µM (active) | 0.34 µM (active) | 0.413 µM (active) | 1.77 µM (inactive) | 0.11 µM (active) | 0.0405 µM (active) | 0.728 µM (active)
COC(=O)C12OCC34C(CC5C(C)=CC(=O)C(O)C5(C)C3C(O)C1O)OC(=O)C(OC(=O)CC(C)C)C24 (stereo unspecified) | 0.002 µM (active) | < 0.0371 µM (active) | 0.000803 µM (active) | 0.00324 µM (active) |  | 0.000548 µM (active) | < 0.0381 µM (active) | 0.00134 µM (active) | 0.000352 µM (active) | 0.00289 µM (active) | 0.000906 µM (active) |  | 0.00325 µM (active) | 0.00206 µM (active) | 0.000624 µM (active) | 0.00216 µM (active) | 0.0444 µM (active) | 0.00116 µM (active) | 0.00223 µM (active) | 0.00738 µM (active)
NC1=NS(=O)(=O)Nc2[nH]c(-c3ccccc3)nc21 |  | > 100 µM (inactive) | > 100 µM (inactive) | > 100 µM (inactive) | > 100 µM (inactive) | > 100 µM (inactive) | > 100 µM (inactive) | > 100 µM (inactive) | > 100 µM (inactive) |  | > 100 µM (inactive) | > 100 µM (inactive) | > 100 µM (inactive) | > 100 µM (inactive) | > 100 µM (inactive) | > 100 µM (inactive) | > 100 µM (inactive) | > 100 µM (inactive) | > 100 µM (inactive) | > 100 µM (inactive)
C[N+](C)(C)CC(=O)N/N=C/c1oc(-c2cccc([N+](=O)[O-])c2)c(-c2cccc([N+](=O)[O-])c2)c1[N+](=O)[O-] | > 100 µM (inactive) | > 100 µM (inactive) | > 100 µM (inactive) | > 100 µM (inactive) | > 10 µM (inactive) |  | > 100 µM (inactive) | 38.5 µM (inactive) | 50.7 µM (inactive) |  |  | > 100 µM (inactive) | > 100 µM (inactive) | 70.8 µM (inactive) | 72.3 µM (inactive) |  | > 100 µM (inactive) |  | 29.5 µM (inactive) | 79.1 µM (inactive)
CC(=O)c1c(P(=O)(OC(C)C)OC(C)C)nn(-c2ccc([N+](=O)[O-])cc2)c1C | > 100 µM (inactive) | > 100 µM (inactive) | > 100 µM (inactive) | > 100 µM (inactive) | > 100 µM (inactive) |  | > 100 µM (inactive) | > 100 µM (inactive) | > 100 µM (inactive) |  | > 100 µM (inactive) | > 100 µM (inactive) | > 100 µM (inactive) | > 100 µM (inactive) | > 100 µM (inactive) | > 10 µM (inactive) | > 100 µM (inactive) | > 100 µM (inactive) | > 100 µM (inactive) | > 100 µM (inactive)
CSc1s[s+]c(SC)c1[O-] | > 100 µM (inactive) | 38.4 µM (inactive) | > 100 µM (inactive) | 33 µM (inactive) | 3.94 µM (inactive) |  | 17.5 µM (inactive) | 15.5 µM (inactive) | 15.7 µM (inactive) |  | 26.5 µM (inactive) | 51.2 µM (inactive) | > 100 µM (inactive) | 20.1 µM (inactive) | 90.6 µM (inactive) | 38.6 µM (inactive) | > 100 µM (inactive) | 26.7 µM (inactive) | 14.4 µM (inactive) | > 100 µM (inactive)
C[S+](C)C1(c2ccccc2)C(=O)c2ccccc2C1=O | 73.8 µM (inactive) | > 65.6 µM (inactive) | 17.7 µM (inactive) | > 60.8 µM (inactive) | > 51.6 µM (inactive) | 38.9 µM (inactive) | > 59.6 µM (inactive) | > 100 µM (inactive) | > 48.8 µM (inactive) | 24.8 µM (inactive) | > 55.1 µM (inactive) | > 47.6 µM (inactive) | > 49.3 µM (inactive) | > 54.7 µM (inactive) | > 38.5 µM (inactive) | 29.2 µM (inactive) | > 100 µM (inactive) | 22.5 µM (inactive) | > 41 µM (inactive) | 32.1 µM (inactive)
Cc1cccc2nc3cccc(C(=O)NCCN(C)C)c3nc12 | 0.266 µM (active) | 0.41 µM (active) | 1.04 µM (active) | 0.605 µM (active) | 0.363 µM (active) | 0.36 µM (active) | 0.766 µM (active) | 0.675 µM (active) |  |  | 1.36 µM (inactive) | 0.83 µM (active) | 1.61 µM (inactive) | 0.673 µM (active) | 0.54 µM (active) | 1.08 µM (active) | 0.433 µM (active) | 0.492 µM (active) | 0.644 µM (active) | 0.239 µM (active)
Cc1ccc(C(=O)OC(C)C)cc1/N=N/N(C)C |  | > 88.5 µM (inactive) | > 100 µM (inactive) | > 93.3 µM (inactive) | > 100 µM (inactive) | > 70 µM (inactive) | > 100 µM (inactive) | 97.7 µM (inactive) | 31.1 µM (inactive) | 98.4 µM (inactive) | 46 µM (inactive) | > 75.2 µM (inactive) | > 100 µM (inactive) | > 100 µM (inactive) | > 64.9 µM (inactive) |  | > 100 µM (inactive) | > 71.4 µM (inactive) | > 96.2 µM (inactive) | 70 µM (inactive)
CO[C@@H]1[C@H](OC(=O)NC(=O)CCl)CC[C@]2(CO2)[C@H]1[C@@]1(C)O[C@@H]1CC=C(C)C [O-CHLOROACETYLCARBAMOYLFUMAGILLOL] | 17.2 µM (inactive) | 14.1 µM (inactive) | 5.81 µM (inactive) | 15.6 µM (inactive) | 12.2 µM (inactive) | 5.05 µM (inactive) | 5.51 µM (inactive) | 6.49 µM (inactive) | 5.35 µM (inactive) | 16 µM (inactive) | 3.49 µM (inactive) | 14.4 µM (inactive) | 17.3 µM (inactive) | 15.8 µM (inactive) | 8.83 µM (inactive) | 7.96 µM (inactive) | 18.3 µM (inactive) | 3.08 µM (inactive) | 12 µM (inactive) | 9.89 µM (inactive)
